Where a name gives a salt, the structure may show the parent alone.

This assay has as its target T1, hB2 receptor (Homo sapiens, UniProt P30411).
T1 construct: host or cells: CHO-K1
T1 sequence (P30411 1-391): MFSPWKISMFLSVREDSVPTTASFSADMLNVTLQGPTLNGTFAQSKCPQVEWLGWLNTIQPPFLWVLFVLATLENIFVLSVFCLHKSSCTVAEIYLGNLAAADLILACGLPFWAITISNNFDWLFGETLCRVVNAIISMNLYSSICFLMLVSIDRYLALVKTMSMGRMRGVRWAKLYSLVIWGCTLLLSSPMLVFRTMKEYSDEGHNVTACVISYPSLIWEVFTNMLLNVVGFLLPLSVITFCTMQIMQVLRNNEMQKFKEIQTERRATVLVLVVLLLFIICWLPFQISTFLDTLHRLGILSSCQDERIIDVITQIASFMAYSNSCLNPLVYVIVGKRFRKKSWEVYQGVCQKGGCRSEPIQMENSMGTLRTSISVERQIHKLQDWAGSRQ
The assay can be described thus: In vitro Assay of hB2 Receptor Function using Calcium Flux. The assay is classed as cell-based. Particulars: recombinant CHO cells, antagonist IC50 against agonist at EC80. The method, then:
In vitro Assay of hB2 Receptor Function using Calcium Flux The intracellular calcium flux induced by hB2 receptor activation was analyzed using an hB2 recombinant cell line (CHO-K1) purchased from PerkinElmer (Catalog Number: RBHB2C000EA) on a fluorometric imaging plate reader (FLIPR). […] Culture medium was changed every other day. 24 h prior to the FLIPR assay, the hB2/CHO cells were washed once with PBS (Invitrogen) and 10 mL of Versene (1:5000, Invitrogen, Cat# 15040-066) was added to each flask. After 5 min incubation at 37° C., Versene was removed and cells were detached from the flask and resuspended in culture medium. Cells were counted and 25,000 cells/well were plated in 96-well black-sided clear bottom assay plates (Costar #3904). Cells were incubated in a 37° C. CO2 incubator overnight. The media was aspirated from the cells and replaced with 65 μL of dye-loading buffer. The loading buffer was prepared by diluting a stock solution of 0.5 mM Fluo-4 AM (Molecular Probes, dissolved in DMSO containing 10% [w/v] pluronic acid) to a concentration of 1 μM in Clear Dulbecco's Modified Eagle Medium (DMEM) containing 0.1% BSA, 20 mM HEPES, and 2.5 mM probenecid. The cells were dye-loaded for 1 h at RT. The excess dye was removed by washing the cells 2× with assay buffer. The assay buffer consists of Hank's Balanced Salt Solution (HBSS) containing 20 mM HEPES, 0.1% BSA, and 2.5 mM probenecid. After the wash cycles, a volume of 100 μL was left in each well, and the plate was ready to be assayed in the FLIPR System. […] The cell plate and the compound plates were loaded onto the FLIPR and during the assay, fluorescence readings are taken simultaneously from all 96 wells of the cell plate. Ten 1-second readings were taken to establish a stable baseline for each well, then 25 μL from the B1 antagonist plate was rapidly (50 μL/sec.) added. The fluorescence signal was measured in 1-second (1 min) followed by 6-second (2 min) intervals for a total of 3 min to determine if there is any agonist activity with the compounds.
(In general: Calcium flux is commonly read through the fluorescence of an indicator in the cells.)
Regarding `Cc1ccc(S(=O)(=O)N2C=CNC(=O)[C@H]2CC(=O)N[C@H]2CC[C@@H](NC(C)C)CC2)cc1` [T-1-35, N-(cis-4-((1-methylethyl)amino)cyclohexyl)-2-((2R)-1-((4-methylphenyl)sulfonyl)-3-oxo-1,2,3,4-tetrahydro-2-pyrazinyl)acetamide], the IC50 (in general, the concentration at which inhibition is half-maximal) worked out at 420 nM.
Next, “1,1-dimethylethyl (3R)-3-((((2R)-1-((4-methylphenyl)sulfonyl)-3-oxo-1,2,3,4-tetrahydro-2-pyrazinyl)acetyl)amino)-1-piperidinecarboxylate; and 1,1-dimethylethyl (3S)-3-((((2R)-1-((4-methylphenyl)sulfonyl)-3-oxo-1,2,3,4-tetrahydro-2-pyrazinyl)acetyl)amino)-1-piperidinecarboxylate [T-1-8]”: 170 nM; `Cc1ccc(S(=O)(=O)N2C=CNC(=O)[C@H]2CC(=O)NC2CCCCC2C2CCCCC2)cc1` (stereo partly drawn) [T-1-40, N-1,1′-bi(cyclohexyl)-2-yl-2-((2R)-1-((4-methylphenyl)sulfonyl)-3-oxo-1,2,3,4-tetrahydro-2-pyrazinyl)acetamide]: 200 nM; `Cc1ccc(S(=O)(=O)N2C=CNC(=O)[C@H]2CC(=O)NC2CCN(c3ccccc3)CC2)cc1` [T-1-3, 2-((2R)-1-((4-methylphenyl)sulfonyl)-3-oxo-1,2,3,4-tetrahydro-2-pyrazinyl)-N-(1-phenyl-4-piperidinyl)acetamide]: 21 nM.
Next, `Cc1ccc(S(=O)(=O)N2C=CNC(=O)[C@H]2CC(=O)NC2CCN(CCc3ccccc3)CC2)cc1` [T-1-58, N-(1-(2-phenethyl)-4-piperidinyl)-2-((2R)-1-((4-methylphenyl)sulfonyl)-3-oxo-1,2,3,4-tetrahydro-2-pyrazinyl)acetamide]: 20 nM; `Cc1ccc(S(=O)(=O)N2C=CNC(=O)[C@H]2CC(=O)N2CCC(NC(=O)c3ccccc3)CC2)cc1` [T-3-40, N-(1-(2-((2R)-1-((4-methylphenyl)sulfonyl)-3-oxo-1,2,3,4-tetrahydro-2-pyrazinyl)acetyl)-4-piperidinyl)benzamide]: over 4000 nM; `Cc1cc(S(=O)(=O)N2C=CNC(=O)[C@H]2CC(=O)N2CCC(CN3CCCC3)CC2)c(C)cc1Cl` [T-3-18, (3R)-4-((4-chloro-2,5-dimethylphenyl)sulfonyl)-3-(2-oxo-2-(4-(1-pyrrolidinylmethyl)-1-piperidinyl)ethyl)-3,4-dihydro-2(1H)-pyrazinone]: 160 nM.
As for `Cc1ccc(S(=O)(=O)N2C=CNC(=O)[C@H]2CC(=O)N2C[C@@H](N)[C@H](c3ccccc3)C2)cc1` [T-3-10, (3R)-3-(2-((3S)-3-(amino)-4(R)-4-phenyl-1-pyrrolidinyl)-2-oxoethyl)-4-((4-methylphenyl)sulfonyl)-3,4-dihydro-2(1H)-pyrazinone], the IC50 came out at 270 nM.
`COc1ccc(CC2CCCN2C(=O)C[C@@H]2C(=O)NC=CN2S(=O)(=O)c2ccc(C)cc2)cc1` (stereo partly drawn) [T-3-47, (3R)-3-(2-(2-RS-((4-(methyloxy)phenyl)methyl)-1-pyrrolidinyl)-2-oxoethyl)-4-((4-methylphenyl)sulfonyl)-3,4-dihydro-2(1H)-pyrazinone]: the IC50 was found to be 390 nM.
Regarding “2-((2R)-1-((2,3-dichlorophenyl)sulfonyl)-3-oxo-1,2,3,4-tetrahydro-2-pyrazinyl)-N-((4S)-3,3-dimethyl-4-piperidinyl)acetamide; and 2-((2R)-1-((2,3-dichlorophenyl)sulfonyl)-3-oxo-1,2,3,4-tetrahydro-2-pyrazinyl)-N-((4R)-3,3-dimethyl-4-piperidinyl)acetamide [T-1-47]”, the IC50 was 0.8 nM.
Next, `Cc1cc(S(=O)(=O)N2C=CNC(=O)[C@H]2CC(=O)N2CCC(CO)CC2)c(C)cc1Cl` [T-3-15, (3R)-4-((4-chloro-2,5-dimethylphenyl)sulfonyl)-3-(2-(4-(hydroxymethyl)-1-piperidinyl)-2-oxoethyl)-3,4-dihydro-2(1H)-pyrazinone]: 940 nM; `Cc1ccc(S(=O)(=O)N2C=CNC(=O)[C@H]2CC(=O)NC2CCC3(CC2(C)C)OCCO3)cc1` (mixture of isomers) [T-1-111, N-((8RS)-7,7-dimethyl-1,4-dioxaspiro[4.5]dec-8-yl)-2-((2R)-1-((4-methylphenyl)-sulfonyl)-3-oxo-1,2,3,4-tetrahydro-2-pyrazinyl)acetamide]: 1.4 nM.
As to `Cc1ccc(S(=O)(=O)N2C=CNC(=O)[C@H]2CC(=O)NC2CCN(c3ncccn3)CC2)cc1` [T-1-7, 2-((2R)-1-((4-methylphenyl)sulfonyl)-3-oxo-1,2,3,4-tetrahydro-2-pyrazinyl)-N-(1-(2-pyrimidinyl)-4-piperidinyl)acetamide], the concentration for half-maximal inhibition (IC50) was 700 nM.
For the compound `Cc1ccc(S(=O)(=O)N2C=CNC(=O)[C@H]2CC(=O)N[C@@H]2CCCC[C@H]2C(C)(C)O)cc1` (mixture of isomers) [T-1-65, N-((1RS,2RS)-2-(1-hydroxy-1-methylethyl)cyclohexyl)-2-((2R)-1-((4-methylphenyl)sulfonyl)-3-oxo-1,2,3,4-tetrahydro-2-pyrazinyl)acetamide], the IC50 came to 2700 nM.
Take `Cc1ccc(S(=O)(=O)N2C=CNC(=O)[C@H]2CC(=O)NC2CC3CCC(C2)N3C)cc1` (stereo partly drawn) [T-1-34, N-((3-endo)-8-methyl-8-azabicyclo[3.2.1]oct-3-yl)-2-((2R)-1-((4-methylphenyl)-sulfonyl)-3-oxo-1,2,3,4-tetrahydro-2-pyrazinyl)acetamide; and N-((3-exo)-8-methyl-8-azabicyclo[3.2.1]oct-3-yl)-2-((2R)-1-((4-methylphenyl)-sulfonyl)-3-oxo-1,2,3,4-tetrahydro-2-pyrazinyl)acetamide]: the 50% inhibitory concentration (IC50) is 140 nM.
To `Cc1cc(S(=O)(=O)N2C=CNC(=O)[C@H]2CC(=O)N2CCC3(CCNC3)C2)c(C)cc1Cl` (stereo partly drawn) [T-3-26, (3R)-4-((4-chloro-2,5-dimethylphenyl)sulfonyl)-3-(2-(2,7-diazaspiro[4.4]non-2-yl)-2-oxoethyl)-3,4-dihydro-2(1H)-pyrazinone] belongs 15 nM.
For `Cc1ccc(S(=O)(=O)N2C=CNC(=O)[C@H]2CC(=O)N2CCCC2c2cc3ccccc3[nH]2)cc1` (stereo partly drawn) [T-3-50, (3R)-3-(2-(2-RS-(1H-indol-2-yl)-1-pyrrolidinyl)-2-oxoethyl)-4-((4-methylphenyl)sulfonyl)-3,4-dihydro-2(1H)-pyrazinone], the IC50 is over 4000 nM.
On to `Cc1cc(S(=O)(=O)N2C=CNC(=O)[C@H]2CC(=O)N2CCCC(N(C)C3CC3)CC2)c(C)cc1Cl` (mixture of isomers) [T-3-28, (3R)-4-((4-chloro-2,5-dimethylphenyl)sulfonyl)-3-(2-((4R/S)-4-(cyclopropyl(methyl)amino)-1-azepanyl)-2-oxoethyl)-3,4-dihydro-2(1H)-pyrazinone trifluoroacetic acid salt], for which the 50% inhibitory concentration (IC50) is 32 nM.
Take `Cc1ccc(S(=O)(=O)N2C=CNC(=O)[C@H]2CC(=O)NC2CCC(N3CCC(F)CC3)CC2(C)C)cc1` (mixture of isomers) [T-1-42]: the IC50 is 1980 nM.
To `Cc1ccc(S(=O)(=O)N2C=CNC(=O)[C@H]2CC(=O)NC2CCN(Cc3ccncc3)CC2(C)C)cc1` (mixture of isomers) [T-1-25, N-((4R)-3,3-dimethyl-1-(4-pyridinylmethyl)-4-piperidinyl)-2-((2R)-1-((4-methylphenyl)sulfonyl)-3-oxo-1,2,3,4-tetrahydro-2-pyrazinyl)acetamide; and N-((4S)-3,3-dimethyl-1-(4-pyridinylmethyl)-4-piperidinyl)-2-((2R)-1-((4-methyl-phenyl)sulfonyl)-3-oxo-1,2,3,4-tetrahydro-2-pyrazinyl)acetamide] belongs 1.21 nM; to `Cc1ccc(S(=O)(=O)N2C=CNC(=O)[C@H]2CC(=O)NC2CCC(NCC(C)(C)C)CC2(C)C)cc1` (mixture of isomers) [T-1-44], 2300 nM; to `Cc1cc(S(=O)(=O)N2C=CNC(=O)[C@H]2CC(=O)N2CCC(N3CCCC3)C(C)(C)C2)c(C)cc1Cl` (mixture of isomers) [T-3-30, (3R)-4-((4-chloro-2,5-dimethylphenyl)sulfonyl)-3-(2-((4R/S)-3,3-dimethyl-4-(1-pyrrolidinyl)-1-piperidinyl)-2-oxoethyl)-3,4-dihydro-2(1H)-pyrazinone], 61 nM.
